Laboratory results taken from US20040029886A1, “Dihalopropene compounds, processes for their preparation, compositions comprising them and their use as pesticides” (priority 2001, published 2004).

What was measured:
Format in all cases: in vivo
Set-up in all cases: key: compounds are considered to be active when, at a concentration of 500 ppm or less, their action on the harmful organisms is 50% or more
[1] = system: L2 larvae of the sugar beet armyworm (Spodoptera exigua); experiment: Example I: sugar beet armyworm L2 larvae on sprayed cotton leaves; settings: 500 ppm or less, after 4 days
Experimental: (§1) In Examples A to L below, compounds are considered to be active when, at a concentration of 500 ppm or less, their action on the harmful organisms is 50% or more.
Cotton plants were sprayed with an aqueous solution of the formulated preparation to be examined. After drying, leaves were cut off, placed into a Petri dish and populated with 5 L2 larvae of the sugar beet armyworm (Spodoptera exigua). After 4 days of storage at about 23° C., the effect of the preparation on the larvae (mortality) was determined. The following examples were active: Nos. 27, 28, 45, 59.

[2] = system: larvae of the diamondback moth (Plutella xylostella); experiment: Example L: diamondback moth larvae on sprayed cabbage leaf; settings: 500 ppm or less, after 4 days
Experimental: as §1
A cabbage leaf was sprayed with an aqueous solution of the formulated preparation to be examined. After drying, the treated leaf was populated with larvae of the diamondback moth (Plutella xylostella). After 4 days of storage at about 25° C., the effect of the preparation on the larvae (mortality) was determined. The following examples were active: Nos. 27, 28, 45.

[3] = system: spider mites (Tetranychus urticae); experiment: Example A: spider mites on bean leaf, dip treatment; settings: 500 ppm or less; leaf and mites dipped 5 seconds; after 6 days
From the text: as §1
Cut stems of bean plants (Phaseolus vulgaris) carrying one leaf were transferred into brown glass bottles filled with tap water and subsequently populated with approximately 100 spider mites (Tetranychus urticae). The plant leaf and the spider mites were then dipped for 5 seconds into an aqueous solution of the formulated preparation to be examined. After the solution had run off, plants and animals were stored in a climatized chamber (16 hours of light/day, 25° C., 40-60% relative atmospheric humidity). After 6 days of storage, the effect of the preparation on all stages of the spider mites was determined. The following examples were active: Nos. 43, 45, 97, 1132.

[4] = system: eggs of the American tobacco budworm (Heliothis virescens); experiment: Example C: eggs of American tobacco budworm, Petri dish with culture medium; settings: 500 ppm or less; eggs dipped 5 seconds, 200 μl on culture medium; after 6 days
Experimental: as §1
A Petri dish whose bottom was covered with filter paper and which contained about 5 ml of culture medium was prepared. Pieces of filter paper with about 30, one-day-old eggs of the American tobacco budworm (Heliothis virescens) were dipped for 5 seconds into an aqueous solution of the formulated preparation to be examined and subsequently placed in a Petri dish. A further 200 μl of the aqueous solution were spread over the culture medium. The Petri dish was closed and then stored at about 25° C. in a climatized chamber. After 6 days of storage, the effect of the preparation on the eggs and any larvae which may have hatched from these (mortality) was determined. The following examples were active: Nos. 6, 27, 28, 29, 31, 35, 39, 43, 45, 59, 97, 226, 227, 228, 229, 351, 356, 357, 592, 593, 595, 949, 1001, 1126, 1129, 1132.

[5] = system: L2 larvae of the Egyptian cotton leaf worm (Spodoptera littoralis); experiment: Example D: L2 larvae of Egyptian cotton leaf worm, Petri dish with culture medium; settings: 500 ppm or less, after 6 days
Experimental: as §1
A Petri dish whose bottom was covered with filter paper and which contained about 5 ml of culture medium was prepared. Five L2 larvae of the Egyptian cotton leaf worm (Spodoptera littoralis) were counted into small beakers. 200 μl of an aqueous solution of the formulated preparation to be examined were pipetted into the beaker. The treated larvae were then poured into the Petri dish, and a further 200 μl of the aqueous solution were distributed over the culture medium. The Petri dish was closed and then stored at about 25° C. in a climatized chamber. After 6 days of storage, the effect of the preparation on the larvae (mortality) was determined. The following examples were active: Nos. 27, 28, 29, 39, 43, 45, 59.

[6] = system: L2 larvae of the sugar beet armyworm (Spodoptera exigua); experiment: Example H: L2 larvae of sugar beet armyworm, Petri dish with culture medium; settings: 500 ppm or less, after 6 days
Experimental: as §1
A Petri dish whose bottom was covered with filter paper and which contained […] of culture medium was prepared. Five L2 larvae of the sugar beet armyworm (Spodoptera exigua) were counted into a small beaker. 200 μl of an aqueous solution of the formulated preparation to be examined were pipetted into the beaker. The treated larvae were then poured into the Petri dish and a further 200 μl of the aqueous solution were distributed over the culture medium. The Petri dish was closed and then stored at 25° C. in a climatized chamber. After 6 days of storage, the effect of the preparation on the larvae (mortality) was determined. The following examples were active: Nos. 31, 97, 226, 227, 228, 229, 351, 356, 357, 592, 593, 595, 949, 1001, 1126, 1129, 1132.

[7] = system: larvae of the root gall nematode (Meloidogyne incognita); experiment: Example F: root gall nematode, contact action (part A) and soil drench action on cucumber (part B); settings: 500 ppm or less; part A 6 days exposure, part B root galls on cucumber after 2 weeks (Abbott's formula)
Experimental: as §1
Part A of the examination (contact action): in a glass vessel, an aqueous solution of the formulated preparation to be examined was added to about 5000 freshly hatched active (mobile) larvae (2nd development stage) of the root gall nematode (Meloidogyne incognita) (final volume 20 ml). After 6 days of permanent exposure of the nematode larvae, the percentage of the individual larvae immobilized by the action of the preparation was determined in comparison to the untreated controls (nematicidal contact action in percent).
Part B of the examination (soil drench action): to this end, the entire solution from part A of the examination (active compound and pre-treated nematode larvae) was poured into a pot, filled with 60 ml of soil, into which three 9-day-old cucumber plants (Cucumis sativus) had been planted. This drench application reduced the active compound content based on the soil volume to one third of the active compound content in part A of the examination. After 2 weeks in a greenhouse at about 26° C. (watering: twice a day), the root balls of the cucumber plants were carefully washed out of the soil mixture contaminated with nematodes. The number of root galls per plant was counted and compared to the infection of untreated control plants. The reduction of the infection in percent as a criterion for the assessment of the activity was calculated using Abbott's formula (nematicidal soil drench action). The following examples were active: Nos. 6, 7, 29, 32, 34, 44, 356.

[8] = system: eggs of the corn rootworm (Diabrotica undecimpunctata); experiment: Example E: eggs of corn rootworm, Petri dish with maize corn; settings: 500 ppm or less, after 6 days
Experimental: as §1
A Petri dish, half of whose bottom was covered with filter paper and which contained a germinated maize corn on a moist cotton pad, was prepared. About 50, 4-5 day-old eggs of the corn rootworm (Diabrotica undecimpunctata) were transferred onto the filter paper. Three drops of 200 μl of an aqueous solution of the formulated preparation to be examined were pipetted onto the eggs, and the rest was pipetted onto the maize corn. The Petri dish was closed and then stored at about 25° C. in a climatized chamber. After 6 days of storage, the effect of the preparation on the eggs and any larvae which may have hatched from these (mortality) was determined. The following examples were active: No. 7.

[9] = system: black bean aphids (Aphis fabae); experiment: Example B: black bean aphids on field bean, dip treatment; settings: 500 ppm or less; plants and aphids dipped 5 seconds; after 3 and 6 days
From the text: as §1
Germinated field bean seeds (Vicia faba) with radicles were transferred into brown glass bottles filled with tap water and subsequently populated with approximately 100 black bean aphids (Aphis fabae). Plants and aphids were then dipped for 5 seconds into an aqueous solution of the formulated preparation to be examined. After the solution had run off, plants and animals were stored in an acclimatized chamber (16 hours of light/day, 25° C., 40-60% relative atmospheric humidity). After 3 and 6 days of storage, the effect of the preparation on the aphids (mortality) was determined. The following examples were active: Nos. 33, 36, 357, 1126.

Structure (SMILES) | effect of the preparation on the eggs and any larvae hatched (mortality) [4] | effect of the preparation on the larvae (mortality) [6] | nematicidal contact action / nematicidal soil drench action [7] | other results
CON=C(C)c1cc(OCC=C(Cl)Cl)cc(Cl)c1OCCCCOc1ncc(Cl)cc1Cl [compound 45] | active |  |  | effect of the preparation on the larvae (mortality) [1]: active; effect of the preparation on the larvae (mortality) [2]: active; effect of the preparation on all stages of the spider mites [3]: active; effect of the preparation on the larvae (mortality) [5]: active
OCC#Cc1cc(OCC=C(Cl)Cl)cc(Cl)c1OCCCOc1ccc(C(F)(F)F)cn1 [compound 227] | active | active |  | 
CON=C(C)c1cc(OCC=C(Cl)Cl)cc(Cl)c1OCCCOc1ccc(C(F)(F)F)cn1 [compound 29] | active |  | active | effect of the preparation on the larvae (mortality) [5]: active
CCNC(=O)c1cc(OCC=C(Cl)Cl)cc(Cl)c1OCCCOc1ccc(C(F)(F)F)cn1 [compound 34] |  |  | active | 
COC(=O)C=Cc1cc(OCC=C(Cl)Cl)cc(Cl)c1OCCCOc1ccc(C(F)(F)F)cn1 [compound 593] | active | active |  | 
CSCc1noc(-c2cc(OCC=C(Cl)Cl)cc(Cl)c2OCCCOc2ccc(C(F)(F)F)cn2)n1 [compound 351] | active | active |  | 
CC(=O)c1cc(OCC=C(Cl)Cl)cc(Cl)c1OCCCCOc1ncc(Cl)cc1Cl [compound 43] | active |  |  | effect of the preparation on all stages of the spider mites [3]: active; effect of the preparation on the larvae (mortality) [5]: active
CC(=NO)c1cc(OCC=C(Cl)Cl)cc(Cl)c1OCCCCOc1ncc(Cl)cc1Cl [compound 44] |  |  | active | 
CC(CO)NC(=O)c1cc(OCC=C(Cl)Cl)cc(Cl)c1OCCCOc1ccc(C(F)(F)F)cn1 (stereo not drawn) [compound 32] |  |  | active | 
C=Cc1cc(OCC=C(Cl)Cl)cc(Cl)c1OCCCOc1ccc(C(F)(F)F)cn1 [compound 595] | active | active |  | 
COC(=O)c1cc(OCC=C(Cl)Cl)cc(Cl)c1OCCCc1ccc(Cl)cc1 [compound 7] |  |  | active | effect of the preparation on the eggs and any larvae hatched (mortality) [8]: active
Cc1noc(-c2cc(OCC=C(Cl)Cl)cc(Cl)c2OCCCOc2ccc(C(F)(F)F)cn2)n1 [compound 357] | active | active |  | effect of the preparation on the aphids (mortality) [9]: active
NC(=S)c1cc(OCC=C(Cl)Cl)cc(Cl)c1OCCCOc1ccc(C(F)(F)F)cn1 [compound 31] | active | active |  | 
CCOC(=O)C=Cc1cc(OCC=C(Cl)Cl)cc(Cl)c1OCCCOc1ccc(C(F)(F)F)cn1 [compound 592] | active | active |  | 
CN(C)C(=O)c1cc(OCC=C(Cl)Cl)cc(Cl)c1OCCCOc1ccc(C(F)(F)F)cn1 [compound 36] |  |  |  | effect of the preparation on the aphids (mortality) [9]: active
C#Cc1cc(OCC=C(Cl)Cl)cc(Cl)c1OCCCOc1ccc(C(F)(F)F)cn1 [compound 229] | active | active |  | 
CON(C)C(=O)c1cc(OCC=C(Cl)Cl)cc(Cl)c1OCCCOc1ccc(C(F)(F)F)cn1 [compound 35] | active |  |  | 
CC(=O)c1cc(OCC=C(Cl)Cl)cc(Cl)c1OCCCc1ccc(Cl)cc1 [compound 6] | active |  | active | 
COCC#Cc1cc(OCC=C(Cl)Cl)cc(Cl)c1OCCCOc1ccc(C(F)(F)F)cn1 [compound 228] | active | active |  | 
